Reference: ChEMBL document CHEMBL1157712, “Hit to lead account of the discovery of bisbenzamide and related ureidobenzamide inhibitors of Rho kinase” (J Med Chem, 2010)
Converted amounts (≈) assume the structure as drawn. Values belong to the compound of their own block, whether it stands above or below them.

Experiments:
[1] = biological target: T1, Rho-associated protein kinase 2 (Homo sapiens, UniProt O75116)
Description: (§2) Inhibition of human ROCK2 by homogenous luciferase assay

Cytochrome P450 2C19 = Cytochrome P450 2C19 (Homo sapiens, UniProt P33261); assay: Inhibition of human CYP2C19 by fluorescence assay; format: ADME
[2] = biological target: Serine/threonine-protein kinase MRCK beta (Homo sapiens) (UniProt Q9Y5S2); assay: Inhibition of CDC42BPB
Cytochrome P450 3A4 [3] = biological target: T2, Cytochrome P450 3A4 (Homo sapiens, UniProt P08684); assay: Inhibition of human CYP3A4 using BFC substrate by fluorescence assay; format: ADME
Cytochrome P450 2C9 [4] = biological target: T3, Cytochrome P450 2C9 (Homo sapiens, UniProt P11712); assay: Inhibition of human CYP2C9 by fluorescence assay; format: ADME
[5] = Solubility at pH 7.4; format: physicochemical; conditions: buffer
Cytochrome P450 1A2 [6] = biological target: T4, Cytochrome P450 1A2 (Homo sapiens, UniProt P05177); assay: Inhibition of human CYP1A2 by fluorescence assay; format: ADME
T4 sequence (P05177 whole entry): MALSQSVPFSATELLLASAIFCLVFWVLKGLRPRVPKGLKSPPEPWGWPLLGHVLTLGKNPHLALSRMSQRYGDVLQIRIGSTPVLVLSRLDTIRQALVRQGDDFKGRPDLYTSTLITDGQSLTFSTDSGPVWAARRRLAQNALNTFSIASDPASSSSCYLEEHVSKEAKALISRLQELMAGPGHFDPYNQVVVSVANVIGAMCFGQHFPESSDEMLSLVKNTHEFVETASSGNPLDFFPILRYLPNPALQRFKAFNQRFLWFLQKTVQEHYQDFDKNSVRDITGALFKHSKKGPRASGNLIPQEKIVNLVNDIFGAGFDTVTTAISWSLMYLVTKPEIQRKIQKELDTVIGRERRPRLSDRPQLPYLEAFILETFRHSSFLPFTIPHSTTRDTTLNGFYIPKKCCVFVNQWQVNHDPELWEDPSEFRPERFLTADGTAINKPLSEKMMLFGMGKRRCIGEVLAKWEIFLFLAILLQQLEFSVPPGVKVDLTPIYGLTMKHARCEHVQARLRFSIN

[7] = Metabolic stability in human liver microsomes assessed as half life; format: ADME, Microsome
Caco-2 = assay: (§1) Permeability from apical to basolateral side in human Caco-2 cells; format: ADME, cell-based; conditions: caco-2, BLD = below limit of detection
Cytochrome P450 2D6 [8] = biological target: T5, Cytochrome P450 2D6 (Homo sapiens, UniProt P10635); assay: Inhibition of human CYP2D6 by fluorescence assay; format: ADME
[9] = biological target: Serine/threonine-protein kinase N2 (Homo sapiens, UniProt Q16513)
[10] = biological target: T6, Protein kinase C epsilon type (Homo sapiens, UniProt Q02156); assay: Inhibition of PKCepsilon
T6 sequence (Q02156 whole entry): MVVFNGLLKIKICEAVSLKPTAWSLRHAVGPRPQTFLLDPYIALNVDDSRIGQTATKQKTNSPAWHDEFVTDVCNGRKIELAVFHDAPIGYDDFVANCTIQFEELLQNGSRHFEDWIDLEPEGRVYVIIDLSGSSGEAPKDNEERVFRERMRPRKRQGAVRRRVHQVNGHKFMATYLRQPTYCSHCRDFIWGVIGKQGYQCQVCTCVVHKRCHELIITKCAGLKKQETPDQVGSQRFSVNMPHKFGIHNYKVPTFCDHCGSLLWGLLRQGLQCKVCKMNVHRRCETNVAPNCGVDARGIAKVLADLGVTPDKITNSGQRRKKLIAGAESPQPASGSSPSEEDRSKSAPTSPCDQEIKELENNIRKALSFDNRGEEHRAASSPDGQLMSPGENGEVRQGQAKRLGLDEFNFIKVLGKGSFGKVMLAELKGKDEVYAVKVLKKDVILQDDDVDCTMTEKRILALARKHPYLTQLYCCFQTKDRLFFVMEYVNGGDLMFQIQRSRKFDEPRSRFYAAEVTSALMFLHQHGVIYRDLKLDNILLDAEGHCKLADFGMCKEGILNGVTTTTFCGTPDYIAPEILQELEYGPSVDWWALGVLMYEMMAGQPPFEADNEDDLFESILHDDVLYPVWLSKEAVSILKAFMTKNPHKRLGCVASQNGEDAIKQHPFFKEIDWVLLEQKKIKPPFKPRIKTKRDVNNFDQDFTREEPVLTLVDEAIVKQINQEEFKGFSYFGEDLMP

[11] = biological target: T1, Rho-associated protein kinase 2; assay: Inhibition of human ROCK2 by IMAP assay
[12] = Permeability from basolateral to apical side in human Caco-2 cells; format: ADME, cell-based; conditions: read-out: permeability
Cytochrome P450 3A4 [13] = biological target: T2, Cytochrome P450 3A4; assay: Inhibition of human CYP3A4 using BQ substrate by fluorescence assay; format: ADME
Rattus norvegicus = species on record: Rattus norvegicus; assay: Induction of relaxation activity of phenylephrine-induced Sprague-Dawley rat aortic ring contraction; format: functional; conditions: Aorta
ROCK1 (Homo sapiens) = assay: Inhibition of ROCK1
[14] = biological target: T1, Rho-associated protein kinase 2; remark: listed apart in the source
Description: as §2

[15] = as §1; format: ADME, cell-based; conditions: Caco-2, read-out: permeability
[16] = Membrane permeability by PAMPA assay; format: ADME; conditions: read-out: permeability
Cytochrome P450 2D6 [17] = biological target: T5, Cytochrome P450 2D6; assay: Inhibition of human CYP2D6 by LCMS/MS assay; format: ADME
Cytochrome P450 1A2 [18] = biological target: T4, Cytochrome P450 1A2; assay: Inhibition of human CYP1A2 by LCMS/MS assay; format: ADME
Cytochrome P450 3A4 [19] = biological target: T2, Cytochrome P450 3A4; assay: Inhibition of human CYP3A4 by LCMS/MS assay; format: ADME
Cytochrome P450 2C9 [20] = biological target: T3, Cytochrome P450 2C9; assay: Inhibition of human CYP2C9 by LCMS/MS assay; format: ADME

T2 sequence (P08684 whole entry): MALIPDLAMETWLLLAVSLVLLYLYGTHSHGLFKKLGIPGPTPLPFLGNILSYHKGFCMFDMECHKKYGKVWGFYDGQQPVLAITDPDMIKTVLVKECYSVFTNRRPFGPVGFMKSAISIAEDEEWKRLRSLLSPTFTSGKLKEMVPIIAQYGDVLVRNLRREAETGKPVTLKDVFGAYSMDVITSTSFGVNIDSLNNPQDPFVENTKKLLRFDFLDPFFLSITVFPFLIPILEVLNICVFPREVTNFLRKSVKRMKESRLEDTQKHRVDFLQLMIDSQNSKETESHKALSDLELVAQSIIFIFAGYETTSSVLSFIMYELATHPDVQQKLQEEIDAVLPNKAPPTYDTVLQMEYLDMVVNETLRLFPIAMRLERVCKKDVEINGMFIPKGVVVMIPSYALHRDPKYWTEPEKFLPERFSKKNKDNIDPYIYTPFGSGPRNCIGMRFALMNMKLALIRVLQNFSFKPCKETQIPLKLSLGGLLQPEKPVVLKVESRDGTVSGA
Chain of Serine/threonine-protein kinase N2 (Q16513 whole entry): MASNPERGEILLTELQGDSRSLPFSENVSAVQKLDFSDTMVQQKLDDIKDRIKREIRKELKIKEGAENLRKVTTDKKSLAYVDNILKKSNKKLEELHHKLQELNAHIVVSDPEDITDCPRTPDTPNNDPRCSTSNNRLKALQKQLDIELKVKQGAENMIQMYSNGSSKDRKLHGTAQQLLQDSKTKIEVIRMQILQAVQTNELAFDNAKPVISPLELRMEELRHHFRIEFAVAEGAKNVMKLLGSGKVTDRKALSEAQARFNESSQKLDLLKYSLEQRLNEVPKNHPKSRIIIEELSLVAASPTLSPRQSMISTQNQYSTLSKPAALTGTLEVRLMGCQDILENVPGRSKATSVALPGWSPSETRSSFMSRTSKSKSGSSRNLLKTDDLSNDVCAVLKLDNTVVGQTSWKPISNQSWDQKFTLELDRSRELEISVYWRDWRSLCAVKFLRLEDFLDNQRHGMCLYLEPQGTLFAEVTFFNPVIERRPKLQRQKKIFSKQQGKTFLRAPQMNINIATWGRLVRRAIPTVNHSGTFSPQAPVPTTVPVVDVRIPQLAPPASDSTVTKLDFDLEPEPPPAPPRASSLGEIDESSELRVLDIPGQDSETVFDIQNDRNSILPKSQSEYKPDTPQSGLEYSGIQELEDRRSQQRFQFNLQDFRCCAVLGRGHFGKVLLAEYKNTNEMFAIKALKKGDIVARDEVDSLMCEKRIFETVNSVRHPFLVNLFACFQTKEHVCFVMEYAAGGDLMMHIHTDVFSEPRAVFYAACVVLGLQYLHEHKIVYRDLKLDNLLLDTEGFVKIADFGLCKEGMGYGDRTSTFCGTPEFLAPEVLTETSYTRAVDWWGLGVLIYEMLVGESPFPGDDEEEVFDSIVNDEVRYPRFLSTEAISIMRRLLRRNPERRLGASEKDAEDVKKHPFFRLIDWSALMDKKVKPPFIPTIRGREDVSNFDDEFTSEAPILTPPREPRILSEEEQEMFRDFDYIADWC
T5 sequence (P10635 whole entry): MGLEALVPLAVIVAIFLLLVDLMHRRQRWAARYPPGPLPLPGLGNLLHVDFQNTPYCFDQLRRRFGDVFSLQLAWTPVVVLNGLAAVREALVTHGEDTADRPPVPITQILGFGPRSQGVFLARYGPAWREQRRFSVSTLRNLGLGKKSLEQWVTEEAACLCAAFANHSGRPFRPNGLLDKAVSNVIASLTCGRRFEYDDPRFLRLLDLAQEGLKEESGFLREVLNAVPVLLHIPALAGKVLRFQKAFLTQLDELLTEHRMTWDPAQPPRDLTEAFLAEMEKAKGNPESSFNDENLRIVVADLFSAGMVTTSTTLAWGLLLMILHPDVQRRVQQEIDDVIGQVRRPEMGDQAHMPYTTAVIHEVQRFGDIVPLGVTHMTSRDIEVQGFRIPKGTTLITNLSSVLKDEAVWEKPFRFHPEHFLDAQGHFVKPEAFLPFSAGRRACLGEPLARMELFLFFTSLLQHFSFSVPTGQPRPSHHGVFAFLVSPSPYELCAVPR
Chain of Cytochrome P450 2C19 (P33261 whole entry): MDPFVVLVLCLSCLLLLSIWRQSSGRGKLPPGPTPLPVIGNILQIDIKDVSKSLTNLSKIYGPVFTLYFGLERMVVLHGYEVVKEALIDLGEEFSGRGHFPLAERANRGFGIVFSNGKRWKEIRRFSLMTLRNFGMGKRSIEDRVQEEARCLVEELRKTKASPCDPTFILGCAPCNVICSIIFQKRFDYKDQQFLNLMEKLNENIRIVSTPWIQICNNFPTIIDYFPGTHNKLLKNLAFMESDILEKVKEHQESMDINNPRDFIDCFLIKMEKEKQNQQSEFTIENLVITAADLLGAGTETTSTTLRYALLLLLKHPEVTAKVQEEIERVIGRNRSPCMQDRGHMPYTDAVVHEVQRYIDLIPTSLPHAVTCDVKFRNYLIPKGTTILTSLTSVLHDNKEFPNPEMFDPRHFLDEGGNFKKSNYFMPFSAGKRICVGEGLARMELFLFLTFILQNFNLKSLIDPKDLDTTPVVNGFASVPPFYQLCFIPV
T1 sequence (O75116 whole entry): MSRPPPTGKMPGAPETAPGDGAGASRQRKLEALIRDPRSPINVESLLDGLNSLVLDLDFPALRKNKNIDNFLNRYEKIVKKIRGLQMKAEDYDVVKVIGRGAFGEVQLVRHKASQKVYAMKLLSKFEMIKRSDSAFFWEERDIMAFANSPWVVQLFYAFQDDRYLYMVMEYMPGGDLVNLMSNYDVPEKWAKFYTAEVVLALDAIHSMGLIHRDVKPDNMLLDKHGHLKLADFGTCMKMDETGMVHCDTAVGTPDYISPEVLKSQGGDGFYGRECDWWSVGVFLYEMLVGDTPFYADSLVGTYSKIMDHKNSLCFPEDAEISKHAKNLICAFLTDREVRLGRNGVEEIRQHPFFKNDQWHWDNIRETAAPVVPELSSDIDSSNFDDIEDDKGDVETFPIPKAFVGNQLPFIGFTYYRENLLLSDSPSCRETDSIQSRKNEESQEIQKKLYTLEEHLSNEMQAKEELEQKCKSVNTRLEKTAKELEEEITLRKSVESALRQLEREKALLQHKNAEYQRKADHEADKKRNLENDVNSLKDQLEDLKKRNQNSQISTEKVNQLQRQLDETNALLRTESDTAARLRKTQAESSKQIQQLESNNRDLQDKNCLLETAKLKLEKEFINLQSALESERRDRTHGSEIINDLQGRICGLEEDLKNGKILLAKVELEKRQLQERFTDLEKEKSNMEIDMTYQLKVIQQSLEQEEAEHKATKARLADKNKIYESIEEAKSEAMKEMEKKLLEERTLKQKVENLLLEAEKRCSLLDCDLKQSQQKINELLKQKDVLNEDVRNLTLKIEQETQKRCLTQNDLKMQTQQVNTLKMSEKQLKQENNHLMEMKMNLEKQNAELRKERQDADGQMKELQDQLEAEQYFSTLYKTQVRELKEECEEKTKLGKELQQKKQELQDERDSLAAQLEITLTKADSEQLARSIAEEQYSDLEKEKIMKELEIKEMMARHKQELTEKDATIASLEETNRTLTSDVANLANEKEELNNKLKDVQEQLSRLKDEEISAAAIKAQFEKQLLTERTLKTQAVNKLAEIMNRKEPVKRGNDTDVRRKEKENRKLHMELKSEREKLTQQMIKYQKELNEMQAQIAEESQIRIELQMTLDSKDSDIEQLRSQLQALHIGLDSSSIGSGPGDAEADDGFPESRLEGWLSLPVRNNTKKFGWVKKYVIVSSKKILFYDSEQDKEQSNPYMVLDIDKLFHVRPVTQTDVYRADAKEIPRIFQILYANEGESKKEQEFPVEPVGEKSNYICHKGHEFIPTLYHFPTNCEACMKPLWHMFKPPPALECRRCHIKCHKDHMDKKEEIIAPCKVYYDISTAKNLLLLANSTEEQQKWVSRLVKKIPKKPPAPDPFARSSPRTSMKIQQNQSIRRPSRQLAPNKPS
T3 sequence (P11712 whole entry): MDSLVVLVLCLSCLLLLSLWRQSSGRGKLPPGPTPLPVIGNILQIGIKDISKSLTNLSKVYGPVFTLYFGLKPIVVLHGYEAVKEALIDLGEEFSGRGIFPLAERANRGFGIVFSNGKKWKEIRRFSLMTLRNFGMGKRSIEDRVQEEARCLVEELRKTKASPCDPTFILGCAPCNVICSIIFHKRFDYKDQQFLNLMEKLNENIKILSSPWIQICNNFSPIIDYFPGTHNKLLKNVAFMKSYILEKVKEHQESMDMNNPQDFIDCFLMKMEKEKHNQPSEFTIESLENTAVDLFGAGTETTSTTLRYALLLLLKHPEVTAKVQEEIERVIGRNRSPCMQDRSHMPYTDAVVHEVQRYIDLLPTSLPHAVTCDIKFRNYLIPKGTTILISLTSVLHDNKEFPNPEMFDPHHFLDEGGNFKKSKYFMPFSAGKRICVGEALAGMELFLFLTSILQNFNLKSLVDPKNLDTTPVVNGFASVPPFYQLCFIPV

IC50 [1]: 0.014 µM
IC50 (Cytochrome P450 2C19): > 30 µM
IC50 [2]: > 5 µM
IC50 (Cytochrome P450 3A4 [3]): 5.9 µM
IC50 (Cytochrome P450 2C9 [4]): 22 µM
solubility [5]: > 100 µg/mL
IC50 (Cytochrome P450 1A2 [6]): > 30 µM
half-life [7]: 3.15 h
permeability (Caco-2): BLD
IC50 (Cytochrome P450 2D6 [8]): > 30 µM
IC50 [9]: 1.6 µM
IC50 [10]: > 5 µM
IC50 [11]: 0.048 µM
Papp B→A [12]: 8.8 ×10⁻⁶ cm/s
IC50 (Cytochrome P450 3A4 [13]): > 30 µM
IC50 (Rattus norvegicus): 8.5 µM
Structure (SMILES): N#Cc1ccc(NC(=O)NCc2cccc(C(=O)Nc3ccc4c(c3)CNCC4)c2)cc1

IC50 [1]: > 7000 µM
Structure (SMILES): Cc1ccc(C(=O)NCc2cccc(C(=O)NCCc3ccncc3)c2)cc1C

IC50 [1]: 0.089 µM
IC50 [2]: > 5 µM
IC50 [9]: > 5 µM
IC50 [10]: > 5 µM
Structure (SMILES): N#Cc1cccc(NC(=O)NCc2cccc(C(=O)NCCC3CCCNC3)c2)c1 (configuration not stated)

IC50 [1]: 0.073 µM
IC50 (ROCK1 (Homo sapiens)): 0.19 µM
IC50 [2]: > 5 µM
IC50 [9]: > 5 µM
IC50 [10]: > 5 µM
Structure (SMILES): COc1ccc(C(=O)NCc2cccc(NC(=O)CCC3CCCNC3)c2)cc1OC (configuration not stated)

IC50 [14]: 685 µM
Structure (SMILES): COc1ccc(C(=O)NCc2cccc(C(=O)Nc3ccc4cnccc4c3)c2)cc1OC

IC50 [1]: 0.053 µM
IC50 (Cytochrome P450 2C19): > 30 µM
IC50 [2]: > 5 µM
IC50 (Cytochrome P450 3A4 [3]): > 30 µM
IC50 (Cytochrome P450 2C9 [4]): > 30 µM
solubility [5]: 16 µg/mL (≈ 37.6 µM)
IC50 (Cytochrome P450 1A2 [6]): > 30 µM
half-life [7]: 2.32 h
Papp A→B [15]: 0.1 ×10⁻⁶ cm/s
IC50 (Cytochrome P450 2D6 [8]): > 30 µM
IC50 [9]: 4.4 µM
IC50 [10]: > 5 µM
IC50 [11]: 0.14 µM
Papp B→A [12]: 0.8 ×10⁻⁶ cm/s
IC50 (Cytochrome P450 3A4 [13]): > 30 µM
Structure (SMILES): COc1ccc(C(=O)NCc2cccc(C(=O)NCCC3CCCNC3)c2)cc1OC (configuration not stated)

IC50 [1]: > 7000 µM
Structure (SMILES): O=C(NCCc1ccncc1)c1cccc(CNC(=O)c2ccc3c(c2)OCO3)c1

IC50 [1]: > 7000 µM
Structure (SMILES): COc1ccc(C(=O)NCc2cccc(C(=O)NCCc3ccncc3)c2)cc1

IC50 [1]: 0.046 µM
IC50 (Cytochrome P450 2C19): > 30 µM
IC50 [2]: > 5 µM
IC50 (Cytochrome P450 3A4 [3]): 1.7 µM
IC50 (Cytochrome P450 2C9 [4]): > 30 µM
solubility [5]: > 85 µg/mL
IC50 (Cytochrome P450 1A2 [6]): > 30 µM
half-life [7]: 0.917 h
Papp A→B [15]: 0.3 ×10⁻⁶ cm/s
IC50 (Cytochrome P450 2D6 [8]): > 30 µM
IC50 [9]: > 5 µM
Papp [16]: 16 ×10⁻⁶ cm/s
IC50 [10]: > 5 µM
Papp B→A [12]: 27.1 ×10⁻⁶ cm/s
IC50 (Cytochrome P450 3A4 [13]): > 30 µM
IC50 (Rattus norvegicus): 1.2 µM
Structure (SMILES): COc1ccc(C(=O)NCc2cccc(C(=O)Nc3ccc4c(c3)CN(C)CC4)c2)cc1OC

IC50 [14]: 160 µM
IC50 [11]: 0.35 µM
Structure (SMILES): COc1ccc(C(=O)NCc2cccc(C(=O)Nc3ccc(CN(C)C)cc3)c2)cc1C(F)(F)F

IC50 [1]: 3.5 µM
Structure (SMILES): N#Cc1cccc(NC(=O)NCc2cccc(C(=O)NCC3CCCO3)c2)c1 (racemic)

IC50 [1]: 0.018 µM
IC50 (ROCK1 (Homo sapiens)): 0.031 µM
IC50 [2]: > 5 µM
IC50 [9]: 1.7 µM
IC50 [10]: > 5 µM
Structure (SMILES): N#Cc1ccc(NC(=O)NCc2cccc(C(=O)NCCC3CCCNC3)c2)cc1 (configuration not stated)

IC50 [1]: 0.87 µM
IC50 (Cytochrome P450 2D6 [17]): > 30 µM
solubility [5]: 48 µg/mL (≈ 114 µM)
half-life [7]: 0.683 h
Papp A→B [15]: 0.6 ×10⁻⁶ cm/s
IC50 (Cytochrome P450 1A2 [18]): > 30 µM
Papp [16]: 10 ×10⁻⁶ cm/s
IC50 (Cytochrome P450 3A4 [19]): > 30 µM
IC50 (Cytochrome P450 2C9 [20]): > 30 µM
Papp B→A [12]: 16.1 ×10⁻⁶ cm/s
Structure (SMILES): COc1ccc(C(=O)NCc2cccc(C(=O)Nc3ccc(CO)cc3)c2)cc1OC

IC50 (Cytochrome P450 2C19): > 30 µM
IC50 [2]: > 5 µM
IC50 (Cytochrome P450 3A4 [3]): > 30 µM
IC50 (Cytochrome P450 2C9 [4]): > 30 µM
solubility [5]: 67 µg/mL (≈ 157 µM)
IC50 (Cytochrome P450 1A2 [6]): > 30 µM
half-life [7]: 1.45 h
Papp A→B [15]: 0.1 ×10⁻⁶ cm/s
IC50 (Cytochrome P450 2D6 [8]): > 30 µM
IC50 [9]: > 5 µM
Papp [16]: 0.6 ×10⁻⁶ cm/s
IC50 [10]: > 5 µM
Papp B→A [12]: 0.6 ×10⁻⁶ cm/s
IC50 (Cytochrome P450 3A4 [13]): > 30 µM
Structure (SMILES): COc1ccc(C(=O)NCc2cccc(C(=O)NCCC3CCNCC3)c2)cc1OC

IC50 [14]: 74 µM
IC50 [11]: 0.18 µM
Structure (SMILES): CN(C)Cc1ccc(NC(=O)c2cccc(CNC(=O)Nc3ccc(C(N)=O)c(Cl)c3)c2)cc1

IC50 [14]: 240 µM
IC50 [11]: 0.29 µM
Structure (SMILES): CN(C)Cc1ccc(NC(=O)c2cccc(CNC(=O)Nc3cccc(C(N)=O)c3)c2)cc1

Structure (SMILES): CN(C)Cc1ccc(NC(=O)c2cccc(CNC(=O)Nc3ccc(C#N)c(Cl)c3)c2)cc1
IC50 [14]: 10 µM
IC50 [11]: 0.045 µM

IC50 [14]: 1.2 µM
Structure (SMILES): COc1ccc(C(=O)NCc2cccc(C(=O)NCC3CCCO3)c2)cc1OC (racemic)

IC50 [14]: 110 µM
Structure (SMILES): N#Cc1ccc(NC(=O)NCc2cccc(NC(=O)CCC3CCCNC3)c2)cc1 (configuration not stated)

IC50 [1]: > 7000 µM
Structure (SMILES): COc1ccc(NC(=O)Nc2cccc(C(=O)NCCC3CCCNC3)c2)cc1OC (configuration not stated)

IC50 [1]: 5 µM
Structure (SMILES): CCCNC(=O)c1cccc(CNC(=O)c2ccc(OC)c(OC)c2)c1
